Drawing on PubChem BioAssay (NCI), this text covers TGI and GI50 for twelve compounds.

“And” between values parts separate entries of the source, which are not always exact repeats. Identical values can stand only once.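 Method: 48-hour compound exposure of cells in 96-well plates, five concentrations, linear interpolation of endpoints. At the GI50, growth is halved. TGI: concentration producing complete growth inhibition.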

Test systems include SW-620 colon; TK-10 renal; A549 NSCLC; SR leukemia; SK-MEL-28 melanoma; NCI-H460 lung; HOP-92 NSCLC; IGROV1 ovarian; HL-60(TB) leukemia; PC-3 prostate.
Common to all, as to assay: NCI-60 cell line screen, 48 h

For the compound `S=C1NNC(=S)NN1`, the TGI in the test with SW-620 colon is above 1 µM; in the test on TK-10 renal, above 1 µM; in the test on A549 NSCLC it was above 1 µM; in the test with SR leukemia, 0.671 µM; in the test with SK-MEL-28 melanoma, above 1 µM; in the test on NCI-H460 lung, above 1 µM. The TGI in the test with HOP-92 NSCLC, with IGROV1 ovarian, with HL-60(TB) leukemia and in the test on PC-3 prostate was above 1 µM in each case.

As for `C/C(=N/NC(=O)c1ccccc1Nc1ccccc1C(=O)N/N=C(\C)c1ccc(C)cc1)c1ccc(C)cc1`, the TGI with SW-620 colon, with TK-10 renal, in the test with A549 NSCLC, in the test on SR leukemia, in the test with SK-MEL-28 melanoma and in the test on NCI-H460 lung was above 100 µM in each case. Further, the TGI with HOP-92 NSCLC, in the test with IGROV1 ovarian, with HL-60(TB) leukemia and in the test on PC-3 prostate was above 100 µM in each case.

For the compound `O=C(CSCC(=O)N/N=C\c1cccc(Br)c1)N/N=C\c1cccc(Br)c1`, the TGI in the test with SW-620 colon stood at 77.4 µM; with TK-10 renal, 24.8 µM; in the test on A549 NSCLC, 31.5 µM; in the test with SR leukemia, 66.1 µM; with SK-MEL-28 melanoma, 41.7 µM; in the test with NCI-H460 lung it was 84.3 µM. For the same compound, the TGI was 47 µM in the test with HOP-92 NSCLC, 47 µM in the test with IGROV1 ovarian, above 100 µM in the test on HL-60(TB) leukemia and 38.1 µM with PC-3 prostate.

In the case of `CN1CCN(C2CC(=O)c3c(Cl)sc(Cl)c32)CC1` (stereo not given), the TGI in the test on SW-620 colon is 22.2 µM; in the test with TK-10 renal, above 61 µM; with A549 NSCLC, above 52.9 µM; in the test with SR leukemia it was above 100 µM; with SK-MEL-28 melanoma, 20.2 µM; in the test with NCI-H460 lung, above 75.3 µM. For the same compound, the TGI is above 27 µM in the test on HOP-92 NSCLC, above 25.6 µM in the test with IGROV1 ovarian, 46 µM in the test on HL-60(TB) leukemia and above 100 µM in the test with PC-3 prostate.

In the case of `COc1ccc2c(-c3csc(-c4c[nH]c5ccccc45)n3)c[nH]c2c1`, the TGI in the test on SW-620 colon was above 100 µM; with TK-10 renal, 23.5 µM; with A549 NSCLC it was 53.7 µM; in the test on SR leukemia, above 100 µM; with SK-MEL-28 melanoma it was above 81.6 µM; with NCI-H460 lung, 13.7 µM. In addition, the TGI was 26.4 µM in the test on HOP-92 NSCLC, above 58.2 µM in the test on IGROV1 ovarian, above 100 µM in the test with HL-60(TB) leukemia and 39.9 µM with PC-3 prostate.

`CC(=O)OC1COC(n2c(N)c(C#N)c(-c3ccccc3)c(C#N)c2=S)C(OC(C)=O)C1OC(C)=O` (stereo not given): the TGI was above 100 µM in the test on SW-620 colon; 94 µM in the test with TK-10 renal; above 100 µM in the test with A549 NSCLC; 46.3 µM and 52.2 µM in the test on SR leukemia; above 100 µM with SK-MEL-28 melanoma; above 100 µM in the test on NCI-H460 lung. Further, the TGI in the test on HOP-92 NSCLC was > 100 µM and 92.6 µM; with IGROV1 ovarian, above 100 µM; with HL-60(TB) leukemia, 44.8 µM; with PC-3 prostate it was above 100 µM.

With `CC(C)c1cc(C(C)C)c(B(c2ccccc2)c2ccccc2)c(C(C)C)c1Br`, the TGI with SW-620 colon, in the test on TK-10 renal, in the test with A549 NSCLC, in the test on SR leukemia, in the test on SK-MEL-28 melanoma and with NCI-H460 lung was above 100 µM throughout. Also, the TGI in the test on HOP-92 NSCLC, in the test with IGROV1 ovarian, in the test on HL-60(TB) leukemia and in the test on PC-3 prostate was above 100 µM throughout.

Consider `CC(C)(CO)Nc1c(O)c2c(c(O)c1Cl)C(=O)C=CC2=O`, for which the TGI with SW-620 colon is 1.37 µM; in the test with TK-10 renal it was 3.36 µM; in the test on A549 NSCLC, 3.61 µM; in the test on SR leukemia it was 0.782 µM; with SK-MEL-28 melanoma, 3.32 µM; with NCI-H460 lung, 4.28 µM. Besides, the TGI turned out to be 3.3 µM in the test with HOP-92 NSCLC, 2.92 µM with IGROV1 ovarian, 0.561 µM in the test with HL-60(TB) leukemia and 3.41 µM with PC-3 prostate.

For the compound `C[S+](C)C1(c2ccccc2)C(=O)c2ccccc2C1=O`, the TGI with SW-620 colon is above 100 µM; in the test on TK-10 renal, above 100 µM; in the test with A549 NSCLC it was 97.7 µM; in the test on SR leukemia it was above 100 µM; in the test on SK-MEL-28 melanoma it was above 100 µM; in the test with NCI-H460 lung it was above 100 µM. The TGI is above 100 µM with HOP-92 NSCLC, above 100 µM with IGROV1 ovarian, above 31.6 µM in the test on HL-60(TB) leukemia and above 100 µM with PC-3 prostate.

Consider `COc1ccc(C2CCc3c(cnc4nc(N)nc(N)c34)C2)cc1` (stereo not given), for which the TGI was above 100 µM in the test on SW-620 colon; 36 µM in the test with TK-10 renal; above 100 µM in the test on A549 NSCLC; above 100 µM in the test on SR leukemia; above 100 µM in the test with SK-MEL-28 melanoma; above 100 µM with NCI-H460 lung. The TGI with HOP-92 NSCLC is 12.3 µM; in the test with IGROV1 ovarian, above 100 µM; in the test with HL-60(TB) leukemia, above 100 µM; with PC-3 prostate, above 100 µM.

Consider `O=C1CSC(c2cc3cc(Br)ccc3nc2Cl)N1c1ccc(F)c(Cl)c1` (stereo not given), for which the TGI in the test on SW-620 colon, with TK-10 renal, with A549 NSCLC, in the test with SR leukemia, in the test with SK-MEL-28 melanoma and in the test with NCI-H460 lung was above 50 µM throughout. In addition, the TGI in the test with HOP-92 NSCLC, in the test with IGROV1 ovarian, in the test with HL-60(TB) leukemia and in the test on PC-3 prostate was above 50 µM each time.

As for `COc1ccc(Nc2ccnc3cc(Cl)ccc23)cc1CN(CCCl)CCCl`, the GI50 in the test with SW-620 colon was 1.59 µM; with TK-10 renal it was 2.02 µM; in the test on A549 NSCLC, 1.69 µM; in the test with SR leukemia, 0.158 µM; in the test on SK-MEL-28 melanoma, 3.59 µM; with NCI-H460 lung it was 0.532 µM. For the same compound, the GI50 in the test with HOP-92 NSCLC was 1.17 µM; with IGROV1 ovarian, 1.31 µM; in the test with HL-60(TB) leukemia, 0.944 µM; with PC-3 prostate it was 2.05 µM. Further, the TGI in the test with SW-620 colon was 7.38 µM; with TK-10 renal it was above 20.7 µM; in the test on A549 NSCLC, above 28.5 µM; in the test on SR leukemia, 0.699 µM; in the test with SK-MEL-28 melanoma, 14.9 µM; in the test with NCI-H460 lung, 2.96 µM. Moreover, the TGI in the test with HOP-92 NSCLC was 5.53 µM; in the test with IGROV1 ovarian, 4.19 µM; in the test on HL-60(TB) leukemia, 3.96 µM; with PC-3 prostate, above 100 µM.
